Test results published in patent US20040152640A1, “Preparation for the prevention and or treatment of altered bone metabolism” (priority 2001, published 2004).

Test system: mouse bone marrow cells
Experiment: Alkaline phosphatase (ALP) activity assay in mouse bone marrow cells (marker for osteoblast differentiation)
Assay type: cell-based
Design: dose or concentration left out as unconfirmed
Conditions: mice bone marrow cells, 3 weeks exposure; with ascorbic acid and β-glycerolphosphate; stimulation more pronounced than genistein
Protocol: Bone marrow cells were isolated from six months old female NMRI mice. After washing, the cells were diluted in phenol red free α-MEM (1% p/s, 15% charcoal treated FCS) and seeded in 24-well plates (1.25*10^6 cells/well). After 24 hours incubation (37° C., 5% CO2) the cells were exposed to the active components (1*10^−5, 1*10^−6 and 1*10^−7 M) together with ascorbic acid (50 μg/ml) and β-glycerolphosphate (1 mM). Exposure media were refreshed every 3 days. After 2 and 3 weeks of incubation, cells were washed with PBS and stored at −20° C. After lysis DNA amounts and alkaline phosphatase activities were determined as described below. The DNA amounts are measured to determine to the number of cells and the alkaline phosphatase activity is used as a marker for osteoblast differentiation. 300 μl lysis buffer (1×SSC/0.01% SDS) was added to the frozen cells. After 1 hour incubation (37° C.) the plates were sonified for 10 minutes and cell suspensions were used for ALP activity measurements. 25 μl cell lysate was transferred in duplicate to 96-well plates. 25 μl of 1*SSC/0.01% SDS served as a negative control. […] ALP activity was measured at a wavelength of 405 nm at room temperature during 10 minutes at 30-second intervals. […] Activity is expressed as nmol p-nitrophenol production/minute/well. (Mean±sem, 2 independent experiments measured in duplicate)

SMILES | alkaline phosphatase signal in differentiated osteoblasts
O=c1cc(-c2ccc(O)cc2)oc2cc(O)cc(O)c12 [apigenin] | increased alkaline phosphatase signal
O=c1cc(-c2ccc(O)c(O)c2)oc2cc(O)cc(O)c12 [luteolin] | increased alkaline phosphatase signal
